{"source": "patent US20120040397A1", "about": "“Photo-Crosslinked Nucleic Acid Hydrogels” (priority 2008, published 2012)", "origin": "cited, not measured here", "key": {"[1]": {"biological_target": "T1, PPAR-gamma (Homo sapiens, UniProt P37231)", "T1 sequence (P37231 1-505)": "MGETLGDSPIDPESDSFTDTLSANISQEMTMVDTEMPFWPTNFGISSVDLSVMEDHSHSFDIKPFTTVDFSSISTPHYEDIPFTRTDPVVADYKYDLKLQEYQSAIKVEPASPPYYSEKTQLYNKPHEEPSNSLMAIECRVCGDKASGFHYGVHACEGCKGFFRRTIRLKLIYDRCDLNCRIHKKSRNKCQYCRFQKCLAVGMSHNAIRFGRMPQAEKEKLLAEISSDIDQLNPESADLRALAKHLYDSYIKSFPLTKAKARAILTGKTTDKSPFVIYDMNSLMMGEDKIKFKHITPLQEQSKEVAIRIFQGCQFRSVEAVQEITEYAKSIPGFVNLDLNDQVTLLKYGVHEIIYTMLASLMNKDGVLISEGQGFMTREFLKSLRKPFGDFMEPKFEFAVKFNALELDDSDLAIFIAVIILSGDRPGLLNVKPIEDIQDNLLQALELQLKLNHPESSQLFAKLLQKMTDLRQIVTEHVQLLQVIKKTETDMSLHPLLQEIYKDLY", "settings": "context-specific, depends on cell type"}, "[2]": {"settings": "in vivo"}}, "data": [{"smiles": "O=C1NC(=O)C(Cc2ccc3cc(OCc4ccccc4F)ccc3c2)S1", "note": "(stereo not drawn) [netoglitazone, 5-[{6-(2-fluorobenzyl)oxy-2-naphthyl}methyl]-2,4-thiazolidinedione]", "values": [{"measurement": "PPAR-gamma modulation", "setting": "[1]", "result": "full agonist of PPAR-gamma and as a partial agonist or antagonist in others"}, {"measurement": "efficacy in lowering plasma glucose, insulin, and triglyceride levels versus pioglitazone and troglitazone", "setting": "[2]", "result": "more efficacious"}, {"measurement": "potency relative to rosiglitazone", "setting": "[2]", "result": "about three-fold"}]}]}
